The source of these data is ChEMBL document CHEMBL4831481, “Semisynthesis, Antiplasmodial Activity, and Mechanism of Action Studies of Isocoumarin Derivatives” (J Nat Prod, 2021).

In data set [1] the test system is Plasmodium falciparum. In words: Antiplasmodial activity against Plasmodium falciparum HB3 infected in human erythrocytes assessed as reduction in parasite growth incubated for 48 hrs by PicoGreen DNA fluorescent dye. Conditions: HB3, 48 h. Type of data set: functional, organism-based.
The nature of data set [2]: Selectivity index, ratio of CC50 for African green monkey Vero cells to IC50 for Plasmodium falciparum HB3 infected in human erythrocytes assessed as reduction in parasite growth. Format: toxicity, cell-based. The settings on record: read-out: Ratio CC50/IC50.
Data set [3] concerns Vero. In words: Cytotoxicity against African green monkey Vero cells assessed as reduction in cell viability by MTT assay. Type of data set: functional. Conditions: Chlorocebus sabaeus. On the technique in general: Tetrazolium dyes change colour on reduction, which living cells bring about.
Data set [4] addresses T1, DNA gyrase (Escherichia coli) (UniProt P0AES6+P0AES4). In words: Inhibition of Escherichia coli DNA gyrase at 100 uM by fluorescence based assay relative to control. Type of data set: protein-complex assay.
Data set [5] concerns the target T1, DNA gyrase (Escherichia coli). The experiment in a line: Inhibition of Escherichia coli DNA gyrase at 50 uM by fluorescence based assay relative to control. Format: protein-complex assay.
Data set [6] deals with Hemozoin. The experiment in a line: Inhibition of beta-hematin formation in Plasmodium falciparum assessed as decrease in beta-hematin. More on the design: scale not given: the % may be the effect or the level left.
For data set [7], the system named is Trypanosoma cruzi. In words: Antitrypanosomal activity against Trypanosoma cruzi amastigotes infected in African green monkey Vero cells incubated for 5 days by chlorophenol red-beta-D-galactoside based colorimetric analysis. Format: functional, organism-based. Conditions: 120 h.
Data set [8] deals with Plasmodium falciparum. The experiment in a line: […] activity in schizont stage Plasmodium falciparum HB3 assessed as reduction in mitochondrial membrane potential at 10 uM incubated for 20 mins and measured after 3 hrs by DiOC6-staining based fluorometry analysis relative to control. Format: functional, organism-based.
Data set [9] relates to Plasmodium falciparum. In words: Induction of reactive oxygen species generation in schizont stage Plasmodium falciparum HB3 incubated for 3 hrs at 10 uM by CM-H2DCFDA dye based fluorescence assay relative to control. Format: functional, organism-based.
In data set [10] the test system is Plasmodium falciparum. In words: Induction of apoptosis in schizont stage Plasmodium falciparum HB3 infected red blood cells assessed as caspase activity measured by FLICA reagent based fluorescence assay. Type of data set: functional, organism-based.
Data set [11] has as its system Plasmodium falciparum HB3. In words: Disruption of cell membrane integrity in schizont stage Plasmodium falciparum HB3 infected red blood cells incubated for 3 hrs at 10 uM and measured by propidium iodide incorporation assay relative to control. Format: cell membranes.
Data set [12] has as its system Leishmania donovani. In words: Antileishmanial activity against Leishmania donovani axenic amastigotes at 10 ug/mL assessed as growth inhibition relative to control. Type of data set: functional. Conditions: read-out: GI.
In data set [13] the test system is Trypanosoma cruzi. In words: Antitrypanosomal activity against Trypanosoma cruzi amastigotes infected in African green monkey Vero cells incubated for 5 days at 10 ug/mL by chlorophenol red-beta-D-galactoside based colorimetric analysis relative to control. Type of data set: functional. Conditions: 120 h, time 5 day, read-out: GI.
The test system of data set [14] is Erythrocyte. The experiment in a line: Hemolytic activity against red blood cells assessed as hemolysis at 10 uM incubated for 24 hrs by spectrophotometric analysis relative to control. Type of data set: ADME, cell-based.
Data set [15] deals with MCF7. In words: Growth inhibition of human MCF7 cells at 10 ug/mL relative to control. Type of data set: functional. The settings on record: read-out: GI.
The nature of data set [16]: Disruption of cell membrane integrity in red blood cells incubated for 3 hrs at 10 uM and measured by propidium iodide incorporation assay relative to control. Format: ADME, cell membranes.
The target in data set [17] is T1, DNA gyrase (Escherichia coli). In words: Inhibition of Escherichia coli DNA gyrase at 10 uM by fluorescence based assay relative to control. Format: protein-complex assay.

The source made the active and inactive calls. The calls are words filed in the database; no cut-off is given here.

Turning to `COC(=O)CC[C@H]1C[C@H]2OC(=O)c3c(cc(OC)c(OC)c3O)[C@H]2O1`, the IC50 in data set [1] was found to be 2580 nM. Also, the selectivity ratio in data set [2] stood at 41. For the same molecule, the CC50 in data set [3] is 106 µM.

Take `COc1cc2c(c(O)c1OC)C(=O)O[C@@H]1C[C@H](C[C@H](C)O)O[C@H]21`: in data set [1], the IC50 came to 11700 nM. Also, the selectivity ratio in [2] was found to be 22. The CC50 in data set [3] turned out to be 262 µM.

For `CC/C(=C(\c1ccccc1)c1ccc(OCCN(C)C)cc1)c1ccccc1`, the inhibition entry in data set [4] is “Active”.

In the case of `CCN(CC)CCCC(C)Nc1ccnc2cc(Cl)ccc12` (configuration not stated), the inhibition result in data set [5] was “inactive”. Besides, in data set [6], the Activity came out at 68.2%.

For the molecule `CCC[C@H]1C[C@H]2OC(=O)c3c(cc(O)c(O)c3OCc3cccc(C(F)(F)F)c3)[C@H]2O1`, the IC50 in data set [7] came to 13.6 µM.

Take `CCC[C@H]1C[C@H]2OC(=O)c3c(cc(OC)c(OC)c3O)[C@H]2O1` [MONOCERIN]: in data set [1], the IC50 worked out at 1130 nM. Besides, the selectivity ratio in data set [2] amounted to 77. The CC50 in data set [3] is 87.5 µM.

`CCC[C@H]1C[C@H]2OC(=O)c3c(cc(OC)c(OC)c3OC(C)=O)[C@H]2O1`: the IC50 in data set [1] is 770 nM. The selectivity ratio in data set [2] worked out at 161. For the same molecule, the CC50 in data set [3] was 124 µM.

`CCC[C@H](O)C[C@H]1OC(=O)c2c(cc(OC)c(OC)c2O)[C@H]1OC`: the IC50 in data set [1] was 380 nM. The figures for the Activity in [6], in [14] and in data set [16] were 51.1%, “Non-Toxic” and “Non-Toxic”, respectively. Besides, the outcome in data set [8] was Active. The outcome in [9], in data set [10] and in data set [11] was inactive. Also, the inhibition of growth at 10 µg/mL in [12], in [13] and in data set [15] was 0% throughout. Also, the selectivity ratio in data set [2] amounted to 675. Besides, the CC50 in data set [3] came out at 258 µM. In [17], the inhibition came out at 48%.

The molecule `CCC[C@H]1C[C@H]2OC(=O)c3c(cc(O)c(O)c3OCc3ccc(C(F)(F)F)cc3)[C@H]2O1` had an IC50 in [7] of 12.4 µM.

In turn, `CCC[C@H]1C[C@H]2OC(=O)c3c(cc(O)c(O)c3OCc3cc(C(F)(F)F)cc(C(F)(F)F)c3)[C@H]2O1` displayed a concentration for half-maximal inhibition (IC50) in data set [7] of 11.9 µM.

By IC50 is commonly meant the point on the concentration scale where inhibition reaches its midpoint. As usually defined, the CC50 is the concentration at which the toxic effect on the cells reaches its halfway point. The term inhibition denotes the share of the control response that was lost under treatment.
